Results from paper PMC7362424, “Structural elucidation, molecular docking, α-amylase and α-glucosidase inhibition studies of 5-amino-nicotinic acid derivatives” (BMC Chemistry, 2020).

Melting point, > 300 °C:
O=C(O)c1cncc(NC(=S)Nc2ccc(Cl)cc2)c1 [Compound 2, 5-(3-(4-Chlorophenyl)thioureido)pyridine-3-carboxylic acid]
O=C(O)c1cncc(NC(=S)Nc2ccccc2F)c1 [Compound 10, 5-(3-(2-Fluorophenyl)thioureido) pyridine-3-carboxylic acid]
O=C(O)c1cncc(NC(=S)Nc2cccc(F)c2)c1 [Compound 11, 5-(3-(3-Fluorophenyl)thioureido) pyridine-3-carboxylic acid]
O=C(O)c1cncc(NC(=S)Nc2ccc(Br)cc2)c1 [Compound 7, 5-(3-(4-Bromophenyl)thioureido) pyridine-3-carboxylic acid]
O=C(O)c1cncc(NC(=S)Nc2ccc(C(F)(F)F)cc2)c1 [Compound 8, 5-(3-(4-(Trifluoromethyl)phenyl)thioureido) pyridine-3-carboxylic acid]
O=C(O)c1cncc(NC(=S)Nc2cccc(Br)c2)c1 [Compound 13, 5-(3-(3-Bromophenyl)thioureido) pyridine-3-carboxylic acid]
O=C(O)c1cncc(NC(=S)Nc2ccc([N+](=O)[O-])cc2)c1 [Compound 5, 5-(3-(4-Nitrophenyl)thioureido) pyridine-3-carboxylic acid]
Cc1ccc(NC(=S)Nc2cncc(C(=O)O)c2)cc1 [Compound 3, 5-(3-p-Tolylthioureido)pyridine-3-carboxylic acid]
Cc1ccc(NC(=S)Nc2cncc(C(=O)O)c2)cc1Cl [Compound 9, 5-(3-(3-Chloro-4-methylphenyl)thioureido) pyridine-3-carboxylic acid]
O=C(O)c1cncc(NC(=S)Nc2ccc(F)cc2)c1 [Compound 4, 5-(3-(4-Fluorophenyl)thioureido)pyridine-3-carboxylic acid]
COc1ccc(NC(=S)Nc2cncc(C(=O)O)c2)cc1 [Compound 6, 5-(3-(4-Methoxyphenyl)thioureido) pyridine-3-carboxylic acid]
O=C(O)c1cncc(NC(=S)Nc2ccccc2)c1 [Compound 1, 5-(3-Phenylthioureido)pyridine-3-carboxylic acid]
O=C(O)c1cncc(NC(=S)Nc2ccccc2Br)c1 [Compound 12, 5-(3-(2-Bromophenyl)thioureido) pyridine-3-carboxylic acid]
